The term melting point denotes the temperature, or range, at which the solid turns liquid. With `O=C(O)c1ccc(OCc2cccc(-c3cccc([N+](=O)[O-])c3)c2)cc1O` [Compound 3-23, 2-Hydroxy-4-(3′-nitro-biphenyl-3-ylmethoxy)-benzoic acid], the melting point was 188 to 193 °C (dec.).
As to `O=C(O)c1ccc(OCc2ccc(-c3cccc([N+](=O)[O-])c3)cc2)cc1O` [Compound 3-10, 2-Hydroxy-4-(3′-nitro-biphenyl-4-ylmethoxy)-benzoic acid], the melting point was 211 to 214 °C (dec.).
With `O=C(O)c1ccc(OCc2cccc(Br)c2)cc1O` [Compound 1-23, 4-(3-Bromo-benzyloxy)-2-hydroxy-benzoic acid] the figure was 191 to 197 °C.
`O=C(O)c1ccc(OCCCCCCCCO)cc1O` [Compound 1-9, 2-Hydroxy-4-(8-hydroxy-octyloxy) benzoic acid] yielded a melting point of 119 to 121 °C.
With `O=C(O)c1ccc(Nc2ccccc2[N+](=O)[O-])cc1O` [Compound 8-12, 2-Hydroxy-4-(2-nitro-phenylamino)-benzoic acid] the figure was 190 °C (dec.).
With `O=C(O)c1ccc(OCc2ccc(-c3cccnc3)cc2)cc1O` [Compound 3-1, 2-Hydroxy-4-(4-pyridin-3-yl-benzyloxy)-benzoic acid] the figure was 209 to 211 °C (dec.); with `CCCCCCCCOc1ccc(-c2nnn[nH]2)c(O)c1` [Compound 12-6, 5-Octyloxy-2-(1H-tetrazol-5-yl)-phenol], 142 to 146 °C; with `COc1cccc(-c2ccc(COc3ccc(C(=O)O)c(O)c3)cc2)c1` [Compound 3-9, 2-Hydroxy-4-(3′methoxy-biphenyl-4-ylmethoxy)-benzoic acid], 197 to 199 °C (dec.).
With `O=C(O)c1ccc(OCc2cccc(-c3ccc4c(c3)OCCO4)c2)cc1O` [Compound 3-36, 4-[3-(2,3-Dihydro-benzo[1,4]dioxin-6-yl)-benzyloxy]-2-hydroxy-benzoic acid] the figure was 170 to 175 °C (dec.).
As to `O=C(O)c1ccc(OCc2ccc3ccccc3n2)cc1O` [Compound 1-19, 2-Hydroxy-4-(quinolin-2-ylmethoxy)-benzoic acid], the melting point is 197 °C (dec.).
For `CC(=O)c1cccc(-c2ccc(COc3ccc(C(=O)O)c(O)c3)cc2)c1` [Compound 3-6, 4-(3′-Acetyl-biphenyl-4-ylmethoxy)-2-hydroxy-benzoic acid], the melting point is 215 to 220 °C (dec.).
The result for `Nc1cccc(-c2cccc(COc3ccc(C(=O)O)c(O)c3)c2)c1` [Compound 3-24, 4-(3′-Amino-biphenyl-3-ylmethoxy)-2-hydroxy-benzoic acid] reads 205 to 208 °C (dec.); that for `CCCCCCCCOc1ccc(NC(=O)C(F)(F)F)c(O)c1` [Compound 9-1, 2,2,2-trifluoro-N-(2-hydroxy-4-octyloxy-phenyl)-acetamide], 114 to 116 °C.
On to `O=C(O)c1cccc(-c2ccc(COc3ccc(C(=O)O)c(O)c3)cc2)c1` [Compound 3-7, 4′-(4-Carboxy-3-hydroxy-phenoxymethyl)-biphenyl-3-carboxylic acid], for which the melting point is 249 to 255 °C (dec.).
The result for `O=C(O)c1ccc(OCc2ccc(-c3ccco3)cc2)cc1O` [Compound 3-3, 4-(4-Furan-2-yl-benzyloxy)-2-hydroxy-benzoic acid] reads 201 to 205 °C (dec.); that for `O=C(Nc1ccc(C(=O)O)c(O)c1)c1ccc(-c2ccccc2)cc1` [Compound 7-2, 4-[(Biphenyl-4-carbonyl)-amino]-2-hydroxy benzoic acid], 266 °C (dec.).
The result for `O=C(O)c1ccc(OCc2cccc(-c3cc(Cl)cc(Cl)c3)c2)cc1O` [Compound 3-31, 4-(3′,5′-Dichloro-biphenyl-3-ylmethoxy)-2-hydroxy-benzoic acid] reads 194 to 197 °C (dec.).
Consider `O=C(O)c1ccc(OCc2cccc(-c3ccccc3)c2)cc1O` [Compound 3-18, 4-(Biphenyl-3-ylmethoxy)-2-hydroxy-benzoic acid], for which the melting point was 184 °C (dec.).
The result for `COc1ccc(-c2ccc(COc3ccc(C(=O)O)c(O)c3)cc2)cc1OC` [Compound 3-15, 2-Hydroxy-4-(3′,4′-dimethoxy-biphenyl-4-ylmethoxy)-benzoic acid] reads 200 to 204 °C (dec.).
The result for `O=C(O)c1ccc(OCCCCC(O)CO)cc1O` (centres unmarked) [Compound 2-3, 4-(5,6-Dihydroxhexoxy)-2-hydroxy-benzoic acid] reads 152 °C.
With `Cc1noc(C)c1-c1cccc(COc2ccc(C(=O)O)c(O)c2)c1` [Compound 3-40, 4-[3-(3,5-Dimethyl-isoxazol-4-yl)-benzyloxy]-2-hydroxy-benzoic acid] the figure was 155 to 176 °C (dec.).
The compound `COc1cc(NC(=O)c2ccc(-c3ccccc3)cc2)ccc1C(=O)O` [Compound 7-1] yielded a melting point of 179 to 181 °C.
The result for `N#Cc1ccc(NCc2ccc(-c3ccccc3)cc2)cc1O` [Compound 12-16, 4-[(Biphenyl-4-ylmethyl)-amino]-2-hydroxy-benzonitrile] reads 196 to 197 °C; that for `O=C(O)c1ccc(NCc2ccc(F)cc2)cc1O` [Compound 6-4, 4-(4-Fluoro-benzylamino)-2-hydroxy-benzoic acid], 175 °C (dec.).
With `C=CCCOc1ccc(C(=O)O)c(O)c1` [Compound 1-5, 4-But-3-enyloxy-2-hydroxy-benzoic acid] the figure was 143 to 144 °C; with `COc1cccc(-c2cccc(COc3ccc(C(=O)O)c(O)c3)c2)c1` [Compound 3-22, 2-Hydroxy-4-(3′-methoxy-biphenyl-3-ylmethoxy)-benzoic acid], 103 to 115 °C (dec.); with `O=C(O)c1ccc(OCc2cccc(-c3ccc4c(c3)OCCCO4)c2)cc1O` [Compound 3-35, 4-[3-(3,4-Dihydro-2H-benzo[b][1,4]dioxepin-7-yl)-benzyloxy]-2-hydroxy-benzoic acid], 188 to 192 °C (dec.).
With `CC(=O)c1cccc(-c2cccc(COc3ccc(C(=O)O)c(O)c3)c2)c1` [Compound 3-20, 4-(3′-Acetyl-biphenyl-3-ylmethoxy)-2-hydroxy-benzoic acid] the figure was 173 to 180 °C (dec.); with `CC(=O)c1ccc(-c2cccc(COc3ccc(C(=O)O)c(O)c3)c2)s1` [Compound 3-29, 4-[3-(5-Acetyl-thiophen-2-yl)-benzyloxy]-2-hydroxy-benzoic acid], 210 to 215 °C (dec.).
On to `COc1ccncc1-c1ccc(COc2ccc(C(=O)O)c(O)c2)cc1` [Compound 3-5, 2-Hydroxy-4-[4-(4-methoxy-pyridin-3-yl)-benzyloxy]-benzoic acid], for which the melting point was 197 to 200 °C (dec.).
The result for `O=C(O)c1ccc(NCc2ccc(OC(F)F)cc2)cc1O` [Compound 6-2, 4-(4-Difluoromethoxy-benzylamino)-2-hydroxy-benzoic acid] reads 161 to 162 °C; that for `O=C(O)c1ccc(OCc2ccc(-c3cccc(O)c3)cc2)cc1O` [Compound 3-8, 2-Hydroxy-4-(3′-hydroxy-biphenyl-4-ylmethoxy)-benzoic acid], 209 to 212 °C (dec.); that for `O=C(O)c1ccc(OCc2ccc(-c3ccc4c(c3)OCO4)cc2)cc1O` [Compound 3-14, 4-[3′,4′-(Methylenedioxy)-biphenyl-4-ylmethoxy]-2-hydroxy-benzoic acid], 222 to 226 °C (dec.).
The result for `Nc1ccc(Oc2ccc(C(=O)O)c(O)c2)cc1` [Compound 8-2, 4-(4-Amino-phenoxy)-2-hydroxy-benzoic acid] reads 187 to 188 °C.
The result for `O=C(O)c1ccc(OCCC(O)CO)cc1O` (centres unmarked) [Compound 2-2, 4-(3,4-Dihydroxybutoxy)-2-hydroxy-benzoic acid] reads 140 to 148 °C; that for `O=C(O)c1ccc(OCCCCCCC(O)CO)cc1O` (centres unmarked) [Compound 2-6, 4-(7,8-Dihydroxyoctyloxy)-2-hydroxy-benzoic acid], 168 to 170 °C.
In the case of `O=C(O)c1ccc(OC2CCOCC2)cc1O` [Compound 4-1, 2-hydroxy-4-(tetrahydro-pyran-4-yloxy)-benzoic acid], the melting point was 179 to 181 °C (dec.).
Take `O=C(O)c1ccc(OCc2ccc(-c3ccncc3)cc2)cc1O` [Compound 3-2, 2-Hydroxy-4-(4-pyridin-4-yl-benzyloxy)-benzoic acid]: the melting point was 252 to 257 °C (dec.).
The result for `CCCCCCCCOc1ccc(C(=O)O)c(O)c1` [Compound 1-3, 2-Hydroxy-4-octyloxy-benzoic acid] reads 100 to 102 °C; that for `O=C(Oc1ccc(C(=O)O)c(O)c1)c1ccc(-c2ccccc2)cc1` [Compound 5-1, 4-(4-Phenyl-benzoyloxy)-2-hydroxy benzoic acid], more than 275 °C.
Take `COc1ccc(-c2cccc(COc3ccc(C(=O)O)c(O)c3)c2)c(OC)c1` [Compound 3-42, 4-(2′,4′-Dimethoxy-biphenyl-3-ylmethoxy)-2-hydroxy-benzoic acid]: the melting point was 176 to 178 °C (dec.).
The result for `COc1cc(-c2cccc(COc3ccc(C(=O)O)c(O)c3)c2)ccc1O` [Compound 3-26, 2-Hydroxy-4-(4′-hydroxy-3′-methoxy-biphenyl-3-ylmethoxy)-benzoic acid] reads 153 to 157 °C (dec.); that for `O=C(O)c1ccc(OCc2cccc(-c3cccc4ccccc34)c2)cc1O` [Compound 3-37, 2-Hydroxy-4-(3-naphthalen-1-yl-benzyloxy)-benzoic acid], 156 to 164 °C (dec.); that for `O=C(O)c1ccc(OCc2cccc(-c3ccc(Cl)c(Cl)c3)c2)cc1O` [Compound 3-30, 4-(3′,4′-Dichloro-biphenyl-3-ylmethoxy)-2-hydroxy-benzoic acid], 211 to 215 °C (dec.).

The values above are taken from US7741352B2, “KCNQ channel modulating compounds and their pharmaceutical use” (Neurosearch A/S, priority 2003, dated 2010).
